Source: patent US4906661A, “Esters of aryloxypropanolamine derivatives” (E. I. Du Pont de Nemours and Company, priority 1989, dated 1990)

Assays:
[1] = target: β1 receptors, guinea pig right atria (Cavia porcellus, UniProt H0W3H1); assay: cell-based; conditions: Table IV; mean, n ≥ 2, range ≤ ± 0.2 units; read-out: pA2 Atria (converted)
Method: Each tissue was suspended between a fixed glass rod and a Statham Universal Transducer connected to a Beckman recorder. Atria were allowed to beat spontaneously under a loading tension of approximately 0.5 gm. Intrinsic depressant or stimulant activity was determined for each compound by progressively increasing concentrations in the tissue baths at 60-minute intervals. Tissues were not washed between increments. The maximum concentration showing little or no cardiodepressant activity was chosen for blockade experiments. Changes in rate in response to isoproterenol, a standard β-receptor agonist, were measured in the absence and presence of test compounds. Spiral strips of guinea pig trachea were suspended under 5 gm resting tension and incubated with phentolamine, tropolone and cocaine. Active tension was generated by addition of carbachol (3.0×10^-7 M) and decreases in tension in response to isoproterenol were quantitated. Cumulative concentration-response curves were produced with isoproterenol both before and after 60-minute incubation of test compounds with atria and trachea. […] The blocking potency of test compounds was estimated by computing pA2 values (-log KB) by the method of Furchgott, the Pharmacological Differentiation of Adrenergic Receptors, Ann. […] The degree of cardioselectivity was estimated from the ratio, KB trachea/KB atria (10^(pA2 atria-pA2 trachea)). A ratio greater than one indicates cardioselectivity. Test drugs were dissolved in distilled water and added to the bath (30 ml) in a volume of 10 or 100 μl.

[2] = target: β2 receptors, guinea pig trachea (Cavia porcellus, UniProt Q8K4Z4); assay: cell-based; conditions: Table IV; mean, n ≥ 2, range ≤ ± 0.2 units; read-out: pA2 Trachea (converted)
Method: Each tissue was suspended between a fixed glass rod and a Statham Universal Transducer connected to a Beckman recorder. Atria were allowed to beat spontaneously under a loading tension of approximately 0.5 gm. Intrinsic depressant or stimulant activity was determined for each compound by progressively increasing concentrations in the tissue baths at 60-minute intervals. Tissues were not washed between increments. […] Changes in rate in response to isoproterenol, a standard β-receptor agonist, were measured in the absence and presence of test compounds. Spiral strips of guinea pig trachea were suspended under 5 gm resting tension and incubated with phentolamine, tropolone and cocaine. Active tension was generated by addition of carbachol (3.0×10^-7 M) and decreases in tension in response to isoproterenol were quantitated. Cumulative concentration-response curves were produced with isoproterenol both before and after 60-minute incubation of test compounds with atria and trachea. […] The blocking potency of test compounds was estimated by computing pA2 values (-log KB) by the method of Furchgott, the Pharmacological Differentiation of Adrenergic Receptors, Ann. […] A ratio greater than one indicates cardioselectivity. Test drugs were dissolved in distilled water and added to the bath (30 ml) in a volume of 10 or 100 μl.

[3] = Ocular toxicity noted in corneal anesthesia test; format: in vivo; conditions: Table IV footnote e

Sequence of β2 receptors, guinea pig trachea (Q8K4Z4 whole entry): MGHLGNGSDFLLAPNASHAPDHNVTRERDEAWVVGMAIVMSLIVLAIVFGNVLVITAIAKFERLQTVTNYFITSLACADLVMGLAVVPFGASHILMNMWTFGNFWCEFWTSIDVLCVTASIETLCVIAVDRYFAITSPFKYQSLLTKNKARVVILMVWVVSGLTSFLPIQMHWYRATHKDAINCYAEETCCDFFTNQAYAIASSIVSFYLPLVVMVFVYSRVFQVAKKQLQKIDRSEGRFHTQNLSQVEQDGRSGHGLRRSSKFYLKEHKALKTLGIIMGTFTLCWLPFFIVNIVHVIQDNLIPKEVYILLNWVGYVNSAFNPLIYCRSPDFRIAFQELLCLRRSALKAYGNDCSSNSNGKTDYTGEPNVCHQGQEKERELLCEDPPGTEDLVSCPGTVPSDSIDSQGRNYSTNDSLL
Sequence of β1 receptors, guinea pig right atria (H0W3H1 1-470): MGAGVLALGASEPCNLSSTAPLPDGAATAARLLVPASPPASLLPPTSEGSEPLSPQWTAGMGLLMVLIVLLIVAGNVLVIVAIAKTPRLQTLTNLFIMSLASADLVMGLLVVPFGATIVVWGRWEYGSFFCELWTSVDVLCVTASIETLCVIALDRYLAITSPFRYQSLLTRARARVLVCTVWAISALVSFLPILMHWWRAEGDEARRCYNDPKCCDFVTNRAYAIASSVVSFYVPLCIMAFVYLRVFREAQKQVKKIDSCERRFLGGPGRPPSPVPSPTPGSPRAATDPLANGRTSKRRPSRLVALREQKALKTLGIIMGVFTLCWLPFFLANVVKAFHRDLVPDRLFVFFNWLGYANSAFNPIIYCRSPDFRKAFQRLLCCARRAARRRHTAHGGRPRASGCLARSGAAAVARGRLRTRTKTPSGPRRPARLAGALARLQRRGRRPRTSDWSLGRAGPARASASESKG

CCOC(=O)CCc1ccccc1OCC(O)CNCCNS(=O)(=O)c1ccc(C)cc1 (stereo not drawn) [No. 8 (Table IV)]
Kb [1]: 794 nM | Kb [2]: 126 nM | ocular toxicity [3]: extreme ocular toxicity
